Patent US11717557B2, “Use of PRG4 as an anti-inflammatory agent” (Lubris LLC, priority 2015, dated 2023)
Blank lines part the entries; values can stand above or below the compound they belong to. Residues, ends and D or L forms follow the SMILES beside them. *: point of attachment. Cbz = O=C(OCc1ccccc1)*

What was measured:
[1] = tested on: NFκB nuclear translocation in RA-FLS; test: NFκB nuclear translocation after TNF-α stimulation of RA-FLS; type: cell-based; conditions: TNF-α 5 ng/mL; rhPRG4 200 μg/mL or MG 132 3 μM; 24 hours; p<0.001
Experimental: RA-FLS (400,000 cells/well) were cultured and stimulated with TNF-α (5 ng/mL) and treated with rhPRG4 (200 μg/mL) or a commercially available NFκB translocation inhibitor MG 132 (3 μM; Tocris Bioscience) for 24 hours in serum free media. Cells were harvested and nuclear extraction was performed using a commercially available kit (Thermo scientific). Total protein was measured using a micro bicinchonic acid (BCA) kit (Thermo scientific) and 3 μg of nuclear extract of each experimental group were used. The p50 subunit of NFκB was detected in the nuclear extract using a commercially available NFκB DNA binding assay kit (Abcam). Data is presented as the number of fold change in NFκB nuclear levels compared to untreated control. To evaluate whether inhibition of NFκB translocation by rhPRG4 is CD44 dependent, the above experiment was repeated in the presence or absence of IM7 CD44 antibody (1:1,000 dilution). Data represents the average of 3 independent experiments with at least triplicate wells per treatment.

CD44 = target: T1, CD44 (Homo sapiens, UniProt P16070); test: CD44 binding of sialidase-A / O-glycosidase digested rhPRG4, direct ELISA; conditions: coating 30 μg/mL; digestion 16 hours at 37° C.
T1 construct: purchased R & D systems
Experimental: rhPRG4 was digested using sialidase A (Prozyme, USA), O-glycosidase (New England Biolabs, USA) or a combination of sialidase A and O-glycosidase for 16 hours at 37° C. In the sialidase A digestion, 12 μL of the enzyme (1 U/200 μL) was added to rhPRG4 in a total reaction volume of 180 μL and a rhPRG4 final concentration of 300 μg/mL. In the O-glycosidase digestion, 4.8 μL of the enzyme (40 million units/mL) was added to rhPRG4 in a total reaction volume of 180 μL and a rhPRG4 final concentration of 300 μg/mL under non-denaturing conditions. In the sialidase-A and O-glycosidase digestion, the enzymes were used in volumes identical to the ones stated above and incubated with rhPRG4 in a total reaction volume and final rhPRG4 concentration as stated above. The effect of sialidase-A and O-glycosidase digestions on rhPRG4 apparent molecular weight was determined by SDS-PAGE using 4-12% Bis-Tris gel (NuPage, life technologies, USA). A total of 20 μL of rhPRG4 or enzyme-digested rhPRG4 was run under reducing conditions ([…] for 60 min) followed by staining using Gelcode Blue Stain (Thermo Scientific, USA). Binding of enzymatically digested rhPRG4 to CD44 was compared to undigested rhPRG4 using the direct ELISA approach described above and using an rhPRG4 coating concentration of 30 μg/mL. Data represents the average of 4 independent experiments, each with triplicate wells per group.

CD44 IgG1Fc [2] = target: T2, CD44 IgG1Fc (Homo sapiens, UniProt P16070); test: Direct ELISA: binding of coated macromolecules to CD44-IgG1Fc versus IgG1Fc; conditions: wells coated at 400 μg/mL; CD44-IgG1Fc or IgG1Fc 1 μg/mL; p<0.001 where significant
T2 construct: purchased R & D systems
Experimental: High-binding microtiter plates (Corning, Sigma Aldrich, USA) were coated with rhPRG4 (Mr≅240 KDa), high molecular weight HA (HMW HA; Mr≈1,500 KDa) (R & D System, USA), medium molecular weight HA (MMW HA; Mr≈300 KDa) (R & D System) and vitronectin (Mr≅75 KDa) (Sigma Aldrich) at 400 μg/mL in PBS buffer (100 μL per well) overnight at 4° C. rhPRG4 is a full-length product produced by CHO-M cells (Lubris, Framingham, Mass., USA). Following washing with PBS+0.1% Tween 20, wells were blocked with 2% bovine serum albumin (BSA; 300 μL per well) for at least 2 hours at room temperature. CD44-IgG1Fc (R & D systems) or IgG1Fc (R & D systems), each at 1 μg/mL (100 μl per well), were added to the plate and incubated for 60 min at room temperature. Following washing with PBS+0.1% tween 20, anti-IgG1Fc-HRP (Sigma Aldrich) was added at 1:10,000 dilution (100 μL per well) and incubated for 60 min at room temp. Following washing with PBS+0.1% tween 20, the assay was developed using 1-step Turbo TMB ELISA reagent (ThermoScientific, USA) and absorbance was measured at 450 nm. The data represents an average of 4 independent assays, each with triplicate wells per group.

CD44 IgG1Fc [3] = target: T2, CD44 IgG1Fc; test: Competition between rhPRG4 and HA on binding to CD44, ELISA; conditions: rhPRG4 5 μg/mL
Experimental: To evaluate the competition between rhPRG4 and either HMW HA or MMW HA on binding to CD44, microtiter plates were coated with either CD44 IgG1Fc or IgG1Fc at 1 μg/mL (100 μL per well) overnight at 4° C. Subsequently, wells were washed with PBS+0.1% tween 20 and wells were blocked using 2% BSA (300 μL per well) for at least 2 hours at room temperature. […] Following washing with PBS+0.1% tween 20, lubricin-specific monoclonal antibody (Mab 9G3) was added at 1:1,000 (100 μL per well) and incubated for 60 min at room temp. Following washing with PBS+0.1% tween 20, goat anti-mouse IgG-HRP (Thermo Scientific) at 1:1,000 dilution was added (100 μL per well) and incubated for 60 min at room temp. The assay was developed as described above. The absorbance values in the IgG1Fc wells were subtracted from the absorbance values in the CD44-IgG1Fc wells and the corrected absorbance values in the rhPRG4+HA groups were normalized to the absorbance values of the rhPRG4 group and data was expressed as percentage binding to CD44. The data represents an average of 4 independent assays, each with triplicate wells per group.

[4] = tested on: Rheumatoid arthritis fibroblast-like synoviocytes (RA-FLS); test: Cytokine-induced RA-FLS proliferation (MTS); type: cell-based; conditions: 48 hours, p<0.05
Experimental: Rheumatoid arthritis fibroblast-like synoviocytes (RA-FLS; Cell Applications, USA) between 3rd and 6th passages were used to conduct these experiments. In sterile 96 well plates, RA-FLS (5,000 cells per well in 80 μL) were cultured in DMEM supplemented with 1% FBS and 1 mM pyruvate and stimulated with recombinant human interleukin-1 beta (IL-1β; R & D systems) at 20 ng/mL or tumor necrosis factor alpha (TNF-α; R & D systems) at 5 ng/mL for 48 hours at 37° C. in the absence or presence of rhPRG4 or HMW HA at a final concentration of 20, 40 or 80 μg/mL. The total volume in each well was 200 μL. Cell proliferation, an indication of inflammation, was determined using the CellTiter 96 AQueous one solution cell proliferation assay (MTS; Promega, USA) and the 490 nm absorbance was determined. Data is presented as the number of fold change in 490 nm absorbance compared to untreated control RA-FLS. The data represents the average of 3 independent experiments with at least triplicate wells per treatment. To evaluate the contribution of CD44 to the effect of rhPRG4 or HMW HA, RA-FLS were stimulated with IL-1β or TNF-α as described above. Treatment with rhPRG4 or HMW HA was conducted to a final concentration of 80 μg/mL in the absence or presence of IM7 (Abcam, USA), a CD44 neutralizing antibody that recognizes a conserved epitope across all CD44 isoforms (Samson et al., Exp Eye Res, 2014; 127C:14-19), at a final dilution of 1:200. The total volume in each well was 200 μl. Cell proliferation across the experimental groups was determined as described above and data is presented as the number of fold change in 490 nm absorbance compared to untreated control RA-FLS. The data represents the average of 3 independent experiments with at least triplicate wells per treatment.

[5] = tested on: citrated whole human blood; test: LPS challenge, inflammatory cytokines in whole blood (Biochip Array); type: cell-based; conditions: LPS 10 μg/mL, versus saline
Excerpt: Lipopolysaccharides (LPS) are found in the outer membrane of Gram-negative bacteria and elicit strong immune inflammatory responses in animals. The effect of LPS challenge on the production of inflammatory cytokines was studied in citrated whole human blood using Biochip Array technology to profile the generation of various cytokines and the modulation of their production. The generation of IL2, IL4, IL6, IL8, IL10, VEGF, IFNg, TNFa, IL1a, IL1b, MCP1 and EGF was studied in citrated whole blood samples supplemented with saline (1-10 ratio) and LPS at 10 μg/mL in samples incubated for 60 minutes at 37° C. These mixtures were centrifuged and the supernatant plasma was analyzed for the […] inflammatory biomarkers using a high sensitivity cytokine array on a Randox Invesitigator Biochip reader. These studies were run in duplicate and tabulated in the form of a table and a figure. As shown in FIGS. 8A-B, supplementation of lipopolysaccharide in a 1:10 dilution in whole blood results in an increase in production of the inflammatory cytokines IL-4, IL-6, IL-8, IL-10, VEGF, TNF-α, IL1-β, and MCP-1 under the specified conditions. No changes in IL2, IFNg, and IL1b were noted.

Compound: CC(C)C[C@@H](C=O)NC(=O)[C@H](CC(C)C)NC(=O)[C@H](CC(C)C)NC(=O)OCc1ccccc1 [MG132, reference compound] (Cbz-Leu-Leu-Leu-aldehyde)
NFκB nuclear translocation compared to TNF-α-treated RA-FLS [1]: significantly reduced

Compound: hyaluronic acid [HMW HA]
450 nm absorbance in the CD44-IgG1Fc group versus the IgG1Fc group (CD44 IgG1Fc [2]): significantly higher | reduction of rhPRG4 binding to CD44 by an excess of HA (CD44 IgG1Fc [3]): approximately 50% | effect of HA on rhPRG4's binding to CD44 (CD44 IgG1Fc [3]; HA at 0.05, 0.25, 1, p<0.05): significantly reduced | RA-FLS proliferation with IL-1β stimulation ([4]; IL-1β 20 ng/mL, treatment 40 and 80 μg/mL): significantly suppressed | RA-FLS proliferation with TNF-α stimulation ([4]; TNF-α 5 ng/mL, treatment 20, 40 and 80 μg/mL): did not result in suppressing

Compound: lipopolysaccharide
production of IL-4, IL-6, IL-8, IL-10, VEGF, TNF-α, IL1-β and MCP-1 ([5]; 1:10 dilution in whole blood, 60 minutes at 37° C.): increase | IL2, IFNg and IL1b ([5]; 60 minutes at 37° C.): No changes | percent changes in IL6, IL8, VEGF and TNFa ([5]; 60 minutes): pronounced increase

Further lines, results first:

percentage binding to CD44 compared to untreated control (undigested rhPRG4) (CD44): significant increase
Compound: O-glycosidase digested rhPRG4: rhPRG4 digested using O-glycosidase for 16 hours at 37° C.

percentage binding to CD44 compared to untreated control (undigested rhPRG4) (CD44): significantly higher
Compound: sialidase-A and O-glycosidase-digested rhPRG4: rhPRG4 digested using a combination of sialidase A and O-glycosidase

percentage binding to CD44 compared to untreated control (undigested rhPRG4) (CD44): significant increase
Compound: sialidase-A digested rhPRG4: rhPRG4 digested using sialidase A for 16 hours at 37° C.

450 nm absorbance in the CD44-IgG1Fc group versus the IgG1Fc group (CD44 IgG1Fc [2]): no significant difference
Compound: vitronectin: vitronectin, Mr≅75 KDa (Sigma Aldrich), shares sequence homology with lubricin
